# Laboratory results: patent US11324774B2, “Compositions of oral alkaline salts and metabolic acid inducers and uses thereof” (Augusta University Research Institute, Inc., priority 2018, dated 2022)
# Read-outs that look alike come from different tables or passages of the source.
# Legend:
# [1] = test system: splenic macrophages; conditions: 3 days, 0.1M in drinking water (unpublished data)
# [2] = for Glucose / HCO3− / Hct / pCO2 / pH / pO2: arterial blood, 0.1M NaHCO3 in drinking water
# Excerpt: Arterial blood gas measurements: Dahl SS rats were anesthetized (2-5% isoflurane) and the left femoral artery was catheterized. Surgically implanted catheters were then tunneled under the skin and exposed between the shoulder blades. Catheters were protected by a light wire spring attached to a swivel (Instech Laboratories Inc, Plymouth Meeting, Pa.), which allows free 360-degree movement of the animal. Rats were individually housed and allowed to recover for 1 week before beginning experimental measurements. Catheters were filled with heparinized saline (30 U/mL) and connected to an infusion pump (Phd2000, Harvard Apparatus, Holliston, Mass.). Infusions of heparinized saline were maintained at 100 μL/hr over the course of the protocol. 0.2 mL arterial blood samples were taken prior to placing rats on treated water, on day 3 of low salt feeding and on day 7 of high salt feeding by disconnecting the catheter from the infusion pump proximal to emergence of the catheter from the rat and drawing arterial blood into a heparinized 1 mL syringe. Arterial blood gas measurements were performed on a Rapidpoint 4055 Blood gas analyzer (Seimens AG, Munich Germany) within 20 minutes of taking the sample. Arterial blood gas measurements on day 14 of HS feeding were taken at the time of sacrifice by left ventricular puncture in anesthetized (2-5% isoflurane) rats.
# (§1) Rat protocols: Dahl SS rats: All rats were maintained on low salt chow with ad libitum water (tap water). […] Following four days of low salt (LS) feeding, rats were placed on an 8% HS diet (AIN76A 8%; Dyets) for two weeks. 24 hour urine collections were obtained on day 3 of low salt and day 7 and day 14 of high salt feeding if applicable. Following 14 days of HS feeding, rats were anesthetized with isoflurane (2-5%) and tissue harvested for analysis.
# Blood gas/electrolytes: In a parallel study, rats were implanted with a femoral arterial catheter to allow arterial blood sampling.
# [3] = 0.1M in drinking water
# Method: Urine collection: For urine collection rats were placed in rat metabolic cages for 24 hours (Nalgene, Rochester, N.Y.). Urine was collected and weighed for volume determination. Up to 10 mL of urine was stored at −80° C. for later analysis. All urinary data are presented as 24 hour urinary excretion.
# Electrolytes: Urinary Na, K and Cl measurements were obtained using an electrolyte analyzer (Easylite; Medica Co, Bedford Mass.). Samples were diluted 1:10, 1 part urine to 9 parts Easylyte Urine Diluent as per the manufactures instructions.
# as §1
# [4] = test system: blood; conditions: 0.1M NaHCO3 in drinking water
# Method: Flow cytometry: With the exception of one group of rats (n=5+5), in all HS fed Dah SS rats, blood pressure telemetry devices were implanted prior to beginning the study. […] No surgical procedures were performed on LS fed Dahl SS rats or Sprague Dawley rats prior to tissue harvest. On the day of tissue harvest rats were anesthetized with isoflurane (2-5%) and a midline incision was performed. The abdominal aorta was catheterized for the collection of ˜2mL of arterial blood in a heparinized tube and the left kidney excised and immediately processed for flow cytometry. Antibody markers utilized for flow cytometry as well as references are given in the online methods.
# In all flow studies, cells were then incubated with antibodies for surface markers for 20 minutes on ice in the dark (all antibodies from Pharmingen-BD-Biosciences, San Jose, Calif.). Cells were then washed with PBS, fixed and permeabilized using FOXP3/Transcription Factor Fix/Perm Buffer (eBiosciences, San Diego, Calif.) for 15 minutes in the dark on ice, and washed once again with PBS before incubation with antibodies for intracellular staining of Foxp3, TNFa, IL-10, and IL-17, on ice in the dark for 20 minutes (BD Biosciences). Cells were then washed and run through a four-color flow cytometer (FACS Calibur, Becton-Dickinson), and data were collected using CellQuest software.
# In all flow studies, group identifiers were removed and flow cytometry analysis was performed by an investigator unaware of the hypothesis or the origin of samples. Samples were double-stained with control IgG and cell markers and were used to assess any spillover signal of fluorochromes; proper compensation was set to ensure the median fluorescence intensities of negative and positive cells were identical and were both gated populations. Gating was used to exclude dead cells and debris using forward and side scatterplots. In each analysis, 100,000 total events were collected. As a gating strategy, for each sample, isotype-matched controls were analyzed to set the appropriate gates. For each marker, samples were analyzed in duplicate measurements. To minimize false-positive events, the number of double- positive events detected with the isotype controls was subtracted from the number of double-positive cells stained with corresponding antibodies (not isotype control), respectively. Cells expressing a specific marker were reported as a percentage of the number of gated events.
# as §1
# Dahl SS rats on the LS protocol were treated identically to the HS protocol above except following 4 days of LS rats were anesthetized and tissue harvested for flow cytometric analysis prior to beginning a HS diet.
# [5] = test system: kidney cells (M1/M2 macrophages)
# [6] = compared to vehicle (0.1M NaCl)
# [7] = Kidney, 14 Days HS, 0.1M NaHCO3 in drinking water
# [8] = Kidney, 3 days LS, 0.1M NaHCO3 in drinking water
smiles,measurement,setting,value
"O=C([O-])O.[Na+] [NaHCO3, sodium bicarbonate]",M2 macrophages,[1],no effect
same,splenic macrophages,[1],increased
same,"markers of plasma acid base status (pH, pCO2, HCO3−)","[2]; across the course of the study, versus vehicle",no significant difference
same,Glucose,[2]; Day 3 LS,195 ± 25 mg/dL
same,HCO3−,[2]; Day 3 LS,25.2 ± 0.7 mM
same,Hct,[2]; Day 3 LS,40 ± 0%
same,pCO2,[2]; Day 3 LS,38.3 ± 1.1
same,pH,[2]; Day 3 LS,7.43 ± 0.01
same,pO2,[2]; Day 3 LS,93.5 ± 2.4
same,Glucose,[2]; Day 7 HS,160 ± 16 mg/dL
same,HCO3−,[2]; Day 7 HS,26.9 ± 0.6 mM
same,Hct,[2]; Day 7 HS,39 ± 2%
same,pCO2,[2]; Day 7 HS,39.4 ± 3.2
same,pH,[2]; Day 7 HS,7.46 ± 0.02
same,pO2,[2]; Day 7 HS,113 ± 16
same,Glucose,[2]; Day 14 HS,235.4 ± 35 mg/dL
same,HCO3−,[2]; Day 14 HS,26.1 ± 1.0 mM
same,Hct,[2]; Day 14 HS,41 ± 2%
same,pCO2,[2]; Day 14 HS,37.4 ± 4.9
same,pH,[2]; Day 14 HS,7.46 ± 0.03
same,pO2,[2]; Day 14 HS,88.7 ± 8.5
same,urinary K excretion,[3]; [6],no effect
same,urinary Na excretion,[3]; [6],no effect
same,urinary Cl excretion,"[3]; compared to vehicle, p=0.03",significantly lower
same,CD3 (% total kidney),[4]; 14 Days HS,57 ± 2%
same,CD4 (% of CD3),[4]; 14 Days HS,53 ± 2%
same,CD44 (% of CD3),[4]; 14 Days HS,14 ± 2%
same,CD69 (% of CD3),[4]; 14 Days HS,0.9 ± 0.3%
same,FOXP3 (% of CD3/CD4),[4]; 14 Days HS,4.4 ± 0.6%
same,IL-17 (% of total kidney),[4]; 14 Days HS,6 ± 1%
same,CD3,[4]; 3 days LS,57 ± 2%
same,CD4,[4]; 3 days LS,55 ± 1%
same,CD44,[4]; 3 days LS,18 ± 1%
same,CD69,[4]; 3 days LS,1.6 ± 0.5%
same,FOXP3,[4]; 3 days LS,5.8 ± 0.7%
same,IL-17,[4]; 3 days LS,5.6 ± 1.1%
same,IL-10 expressing macrophages (M2-polarized macrophages) in the kidney,[5]; 14 days HS,increase
same,TNFα expressing macrophages (M1-polarized macrophages) in the kidney,"[5]; 14 days HS, p<0.01",decrease
same,CD3 (% total kidney),[5]; [7],1.8 ± 0.3%
same,CD4 (% of CD3),[5]; [7],55 ± 2%
same,CD11b/c (% total kidney),[5]; [7],0.4 ± 0.04%
same,CD44 (% of CD3),[5]; [7],36 ± 5%
same,CD69 (% of CD3),[5]; [7],2.8 ± 0.7%
same,FOXP3 (% of CD3/CD4),[5]; [7],3.3 ± 0.5%
same,IL-10 (% of total kidney),[5]; [7],4.2 ± 0.3%
same,IL-17 (% of total kidney),[5]; [7],0.7 ± 0.1%
same,M1 (% of total kidney),[5]; [7],0.12 ± 0.02%
same,M2 (% of total kidney),[5]; [7],0.2 ± 0.03%
same,TNFα (% of total kidney),[5]; [7],2.0 ± 0.3%
same,CD3,[5]; [8],1.1 ± 0.3%
same,CD4,[5]; [8],54 ± 2%
same,CD11b/c,[5]; [8],0.24 ± 0.02%
same,CD44,[5]; [8],52 ± 3%
same,CD69,[5]; [8],0.9 ± 0.3%
same,FOXP3,[5]; [8],2.6 ± 0.5%
same,IL-10,[5]; [8],4.8 ± 0.5%
same,IL-17,[5]; [8],0.4 ± 0.2%
same,M1,[5]; [8],0.16 ± 0.04%
same,M2,[5]; [8],0.36 ± 0.02%
same,TNFα,[5]; [8],1.4 ± 0.2%
same,effect of NaHCO3 to promote M1 to M2 polarization in the kidney,"[5]; after removal of the spleen or manipulation of the spleen to midline, HS diet for 2 weeks",completely abolished
same,macrophage polarization in kidney tissue,"[5]; low salt fed Dahl SS rats, p=0.007",polarization from predominately M1 to M2
same,macrophage polarization with both marker sets,"[5]; spleen and kidney, 14 days HS, alternative markers CD68/CD163/CD206",M1 to M2 polarization
